Experimental data published in publication PMC10938783, “A novel pan-PI3K inhibitor KTC1101 synergizes with anti-PD-1 therapy by targeting tumor suppression and immune activation” (Molecular Cancer, 2024).

What was measured:
Acute toxicity study = format: in vivo; details: both sexes, mouse, in vivo, oral; BALB/c mice, acute toxicity
Protocol: (§1) All mice care and experimental protocols were approved by the Ethical Committee of Tianjin Medical University (permit number: TMUaMEC 2023036). Preliminary testing was conducted on 6 groups of BALB/c mice (half male, half female, 18–22 g), fasted but not water-deprived for 12 h, and administered different doses of KTC1101 (200 to 6400 mg/kg). […] The LD50 was calculated based on the doses causing 0% and 100% mortality in animals. Subsequent testing was done using doses determined from the preliminary study. Each dose was administered to a single animal, with a 72-h interval between dosages. The administration continued until one of the following criteria was met: (a) three consecutive animals survived; (b) a transition from survival to death occurred in 5 out of 6 consecutive animals; (c) at least four animals were tested after the first transition, with an estimated LD50 range exceeding the critical value (2.5 times). The LD50 and its confidence interval were calculated, and the maximum likelihood method was used to determine the LD50 value using the AOT425StatPgm software.

BALB/c mice = experiment: Acute toxicity study; format: in vivo; details: symbols O/X not defined
Protocol: as §1

CAL33 tumors = experiment: CAL33 xenograft in NSG mice; format: in vivo, mouse; details: 100 mg/kg PO
Protocol: BALB/c nude, NSG, and C57BL/6J mice were obtained from Tianjin Medical University. The housing temperature was controlled, ranging from 20.5–24 °C, and humidity was monitored but not controlled ranging from 30–70%. The 12-h daily light cycle was from 06:00 to 18:00. To generate a murine subcutaneous tumor model, PC3 and HSC2 cells were subcutaneously injected into the right lateral flank of 4- to 5-week-old male BALB/c nude mice. TMD8, CAL33, and S24 cells were subcutaneously injected into the right lateral flank of 4- to 5-week-old male NSG mice. When tumors reached a volume of 300–500 mm^3, they were excised, diced into 2 mm × 2 mm × 2 mm pieces, and implanted into the right flanks of BALB/c nude or NSG mice. Tumors were allowed to grow to a volume of 100 mm^3, and then the animals were randomly divided into several groups. Each group of five mice was treated with either vehicle or KTC1101 (25, 50, or 100 mg/kg, PO). Tumor size was measured every 3 d or 4 d until the endpoint. The tumor volume was calculated using the following formula: length × width × height/2. At the end of the experimental period, mice were euthanized by overdosing on pentobarbital sodium, and the tumors were removed. Tumor tissue was formalin-fixed and paraffin-embedded for histological analysis.

OVCAR-4 = experiment: JFCR39 sulforhodamine B growth assay; format: cell-based; details: Homo sapiens, OVCAR-4, 48 h
Protocol: (§2) JFCR39 drug discovery system was used to measure the growth inhibitory activities and identify the target of KTC1101. The JFCR39 panel consists of 39 cell lines seeded in 96-well plates. After 48-h treatment with KTC1101, cell growth was measured using the sulforhodamine B assay. […] The deviation of log GI50 for each cell line from the average log GI50 across the JFCR39 panel was plotted as a fingerprint. MG-MID (mean of Log GI50 values) represents the average log GI50 for all 39 cell lines. The most sensitive and least sensitive cell lines were identified by calculating the difference in their log GI50 values (Range) and the difference between the most sensitive cell line and the average GI50 on the JFCR39 panel (Delta). The fingerprint of KTC1101 was compared with the fingerprints of reference compounds in the database. The Pearson correlation coefficient (r) was calculated (n = 39).

SF-539 = experiment: JFCR39 sulforhodamine B growth assay; format: cell-based; details: Homo sapiens, SF-539, 48 h
Protocol: as §2

DMS114 = experiment: JFCR39 sulforhodamine B growth assay; format: cell-based; details: Homo sapiens, DMS-114; DMS114, 48 h
Protocol: as §2

PC-3 = experiment: JFCR39 sulforhodamine B growth assay; format: cell-based; details: Homo sapiens, PC-3, 48 h
Protocol: as §2

HCT-15 = experiment: JFCR39 sulforhodamine B growth assay; format: cell-based; details: Homo sapiens, HCT-15, 48 h
Protocol: as §2

MKN-A = experiment: JFCR39 sulforhodamine B growth assay; format: cell-based; details: Homo sapiens, 48 h
Protocol: as §2

HBC-5 = experiment: JFCR39 sulforhodamine B growth assay; format: cell-based; details: Homo sapiens, HBC5; HBC-5, 48 h
Protocol: as §2

DMS273 = experiment: JFCR39 sulforhodamine B growth assay; format: cell-based; details: Homo sapiens, DMS-273; DMS273, 48 h
Protocol: as §2

St-4 = experiment: JFCR39 sulforhodamine B growth assay; format: cell-based; details: Homo sapiens, St-4, 48 h
Protocol: as §2

PI3Kα (PIK3CA/PIK3R1) = PI3Kα (PIK3CA/PIK3R1) (Homo sapiens, UniProt P42336); experiment: Adapta kinase assay; format: biochemical
Protocol: (§3) Procedures for the preparation of KTC1101 are described in supplemental data. To investigate the PI3K inhibitory efficacy of KTC1101, its impact on the kinase activity of PI3K isoforms was assessed using the Adapta kinase assay as previously reported. Initially, a dilution series of 2.5 µL KTC1101 or DMSO (control) was prepared and added to the respective wells of a 384-well plate. Subsequently, optimized 2.5 µL kinase solutions, including PIK3CA/PIK3R1, PIK3CB/PIK3R1, PIK3CG, and PIK3CD/PIK3R1, were introduced to each well. After adding the kinase solutions, 5 µL ATP and PIP2:PS lipid kinase substrate was introduced into each well and incubated for 1 h at room temperature. This step allows for the initiation and progression of the kinase reaction. Following the incubation, a detection solution (5 µL) was added to all the wells. This solution contained 30 mM EDTA to stop the kinase reaction, 6 nM Eu-labeled anti-ADP antibody, and a 3 × concentration of Alexa Fluor® 647 ADP tracer. The EDTA effectively terminates the kinase reaction, while the anti-ADP antibody and ADP tracer are crucial for the detection of ADP produced during the kinase reaction, which correlates with PI3K activity. The plate was then allowed to equilibrate for 30 min at room temperature, ensuring proper binding of the tracer and antibody to the generated ADP. Finally, the fluorescence of each well was measured using a Multi-Mode Microplate Reader (Spark, Tecan). To ascertain the selectivity of KTC1101 for PI3K isoforms and to rule out off-target effects, a kinase panel comprising 50 kinases was tested against KTC1101. This kinase profiling was conducted by Wuhan Heyan Biomedical Technology Co., Ltd.

PI3Kδ (PIK3CD/PIK3R1) = PI3Kδ (PIK3CD/PIK3R1) (Homo sapiens, UniProt O00329); experiment: Adapta kinase assay; format: biochemical
Protocol: as §3

PI3Kγ (PIK3CG) = PI3Kγ (PIK3CG) (Homo sapiens, UniProt P48736); experiment: Adapta kinase assay; format: biochemical
Protocol: as §3

Chain of PI3Kγ (PIK3CG) (P48736 whole entry): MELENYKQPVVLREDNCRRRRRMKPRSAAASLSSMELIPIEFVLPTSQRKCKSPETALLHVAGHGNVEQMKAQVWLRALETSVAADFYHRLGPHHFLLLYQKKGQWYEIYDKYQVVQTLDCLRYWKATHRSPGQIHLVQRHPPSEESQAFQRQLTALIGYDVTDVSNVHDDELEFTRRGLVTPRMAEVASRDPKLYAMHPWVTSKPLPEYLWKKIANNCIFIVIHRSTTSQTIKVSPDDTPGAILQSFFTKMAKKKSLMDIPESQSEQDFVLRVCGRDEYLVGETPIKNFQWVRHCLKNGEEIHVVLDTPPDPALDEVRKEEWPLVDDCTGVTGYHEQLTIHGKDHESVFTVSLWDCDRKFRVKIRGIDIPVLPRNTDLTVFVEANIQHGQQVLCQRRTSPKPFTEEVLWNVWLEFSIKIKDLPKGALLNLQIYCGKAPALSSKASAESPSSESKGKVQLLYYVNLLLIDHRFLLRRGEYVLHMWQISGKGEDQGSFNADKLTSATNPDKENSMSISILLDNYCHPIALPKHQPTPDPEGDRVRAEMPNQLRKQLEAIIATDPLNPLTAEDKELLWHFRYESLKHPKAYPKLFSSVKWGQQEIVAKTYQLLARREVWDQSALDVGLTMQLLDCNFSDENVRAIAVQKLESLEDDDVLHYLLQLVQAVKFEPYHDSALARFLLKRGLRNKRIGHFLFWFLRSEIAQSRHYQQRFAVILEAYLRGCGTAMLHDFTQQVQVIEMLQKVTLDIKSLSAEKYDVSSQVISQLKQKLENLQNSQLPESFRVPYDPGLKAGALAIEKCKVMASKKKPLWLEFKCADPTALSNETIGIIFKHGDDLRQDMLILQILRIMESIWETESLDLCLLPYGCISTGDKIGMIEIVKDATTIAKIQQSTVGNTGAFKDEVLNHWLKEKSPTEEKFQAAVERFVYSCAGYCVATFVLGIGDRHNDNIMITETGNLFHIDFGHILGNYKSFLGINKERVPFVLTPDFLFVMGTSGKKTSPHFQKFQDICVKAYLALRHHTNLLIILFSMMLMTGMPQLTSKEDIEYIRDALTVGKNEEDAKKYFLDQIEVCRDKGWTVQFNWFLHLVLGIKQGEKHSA
Chain of PI3Kα (PIK3CA/PIK3R1) (P42336 whole entry, canonical isoform): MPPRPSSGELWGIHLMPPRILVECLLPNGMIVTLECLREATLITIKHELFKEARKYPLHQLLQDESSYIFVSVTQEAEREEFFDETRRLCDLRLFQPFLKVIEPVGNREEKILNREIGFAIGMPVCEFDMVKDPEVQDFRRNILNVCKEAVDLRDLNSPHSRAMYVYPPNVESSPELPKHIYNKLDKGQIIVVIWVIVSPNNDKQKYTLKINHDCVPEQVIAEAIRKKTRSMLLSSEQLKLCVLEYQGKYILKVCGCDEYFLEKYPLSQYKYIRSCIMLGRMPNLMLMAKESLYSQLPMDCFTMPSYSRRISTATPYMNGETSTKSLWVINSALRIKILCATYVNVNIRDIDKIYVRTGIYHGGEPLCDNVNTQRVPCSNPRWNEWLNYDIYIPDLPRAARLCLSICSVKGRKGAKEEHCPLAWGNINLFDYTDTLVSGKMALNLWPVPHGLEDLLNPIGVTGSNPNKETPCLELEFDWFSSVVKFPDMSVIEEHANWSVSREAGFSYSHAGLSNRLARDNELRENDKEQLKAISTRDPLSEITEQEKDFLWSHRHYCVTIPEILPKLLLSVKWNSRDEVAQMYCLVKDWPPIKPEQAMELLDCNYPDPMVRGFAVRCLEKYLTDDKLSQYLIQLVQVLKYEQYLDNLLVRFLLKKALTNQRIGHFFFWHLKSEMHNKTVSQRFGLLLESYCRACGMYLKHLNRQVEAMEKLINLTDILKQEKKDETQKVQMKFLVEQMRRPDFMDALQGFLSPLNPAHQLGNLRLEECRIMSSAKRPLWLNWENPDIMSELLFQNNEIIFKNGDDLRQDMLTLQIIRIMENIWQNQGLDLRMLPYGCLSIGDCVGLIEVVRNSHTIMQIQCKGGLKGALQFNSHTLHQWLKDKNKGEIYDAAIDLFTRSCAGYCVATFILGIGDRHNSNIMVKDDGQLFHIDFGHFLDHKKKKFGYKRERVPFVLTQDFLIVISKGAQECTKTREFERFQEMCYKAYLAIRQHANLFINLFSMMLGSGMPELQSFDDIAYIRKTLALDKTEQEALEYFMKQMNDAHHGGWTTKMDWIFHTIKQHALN
Chain of PI3Kα (PIK3CA/PIK3R1) (P27986 whole entry partner, canonical isoform): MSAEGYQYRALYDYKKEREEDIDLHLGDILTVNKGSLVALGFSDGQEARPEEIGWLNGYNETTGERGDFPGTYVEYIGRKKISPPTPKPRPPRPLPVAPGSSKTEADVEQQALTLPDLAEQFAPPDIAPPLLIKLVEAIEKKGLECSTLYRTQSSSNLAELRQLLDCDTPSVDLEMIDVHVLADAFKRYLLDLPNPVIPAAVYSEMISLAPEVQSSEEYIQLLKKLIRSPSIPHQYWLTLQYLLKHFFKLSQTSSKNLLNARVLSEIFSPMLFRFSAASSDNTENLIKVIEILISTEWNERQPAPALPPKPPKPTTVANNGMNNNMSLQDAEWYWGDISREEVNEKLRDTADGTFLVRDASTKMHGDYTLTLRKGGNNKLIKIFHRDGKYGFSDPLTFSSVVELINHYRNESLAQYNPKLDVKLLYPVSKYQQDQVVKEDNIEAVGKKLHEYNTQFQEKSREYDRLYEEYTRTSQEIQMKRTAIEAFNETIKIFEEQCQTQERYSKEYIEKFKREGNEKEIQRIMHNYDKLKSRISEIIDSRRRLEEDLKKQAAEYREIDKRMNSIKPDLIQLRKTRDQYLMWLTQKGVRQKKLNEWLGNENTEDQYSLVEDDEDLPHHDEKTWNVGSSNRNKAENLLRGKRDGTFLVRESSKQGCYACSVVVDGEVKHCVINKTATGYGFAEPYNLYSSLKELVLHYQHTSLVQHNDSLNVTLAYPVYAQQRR
Chain of PI3Kδ (PIK3CD/PIK3R1) (O00329 whole entry): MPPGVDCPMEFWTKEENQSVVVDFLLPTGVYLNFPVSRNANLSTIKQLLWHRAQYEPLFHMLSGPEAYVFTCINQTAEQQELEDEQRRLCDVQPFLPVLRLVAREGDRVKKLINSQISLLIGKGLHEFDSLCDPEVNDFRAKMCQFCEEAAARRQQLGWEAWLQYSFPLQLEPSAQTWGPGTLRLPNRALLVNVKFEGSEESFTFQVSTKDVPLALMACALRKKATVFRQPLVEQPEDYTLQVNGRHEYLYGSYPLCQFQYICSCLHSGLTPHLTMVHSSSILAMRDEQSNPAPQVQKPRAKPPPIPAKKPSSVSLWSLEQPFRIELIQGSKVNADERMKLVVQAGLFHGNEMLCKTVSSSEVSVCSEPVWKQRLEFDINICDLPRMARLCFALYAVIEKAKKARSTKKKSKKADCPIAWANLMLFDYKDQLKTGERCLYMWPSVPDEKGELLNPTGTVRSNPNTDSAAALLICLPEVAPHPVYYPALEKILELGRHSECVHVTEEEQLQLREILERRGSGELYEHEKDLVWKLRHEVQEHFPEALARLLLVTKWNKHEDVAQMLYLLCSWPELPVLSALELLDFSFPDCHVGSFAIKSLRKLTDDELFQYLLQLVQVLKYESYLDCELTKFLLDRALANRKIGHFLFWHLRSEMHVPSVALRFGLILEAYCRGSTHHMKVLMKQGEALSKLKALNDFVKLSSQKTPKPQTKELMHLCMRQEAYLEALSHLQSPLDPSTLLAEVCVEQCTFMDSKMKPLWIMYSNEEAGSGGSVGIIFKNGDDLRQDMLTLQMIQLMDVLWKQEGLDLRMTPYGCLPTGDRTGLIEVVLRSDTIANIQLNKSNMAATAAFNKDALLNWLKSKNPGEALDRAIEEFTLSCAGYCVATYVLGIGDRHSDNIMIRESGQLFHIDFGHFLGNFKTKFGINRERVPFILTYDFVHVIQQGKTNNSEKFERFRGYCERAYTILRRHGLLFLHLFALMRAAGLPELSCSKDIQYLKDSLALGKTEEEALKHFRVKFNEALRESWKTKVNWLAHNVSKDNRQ
Chain of PI3Kδ (PIK3CD/PIK3R1) (P27986 whole entry partner): as the sequence (P27986 whole entry partner, canonical isoform) above

## COc1cc(N)cc2c1nc(C(F)F)n2-c1nc(N2CCCOCC2)nc(N2CCOCC2)n1 [KTC1101, 2-(difluoromethyl)-4-methoxy-1-(4-morpholino-6-(1,4-oxazepan-4-yl)-1,3,5-triazin-2-yl)-1H-benzo[d]imidazol-6-amine]
Acute toxicity study
  LD50 at 7 days: 2140 mg/kg
BALB/c mice; real dose 1750 mg/kg
  Score: OOO
BALB/c mice; real dose 2275 mg/kg
  Score: XXX
CAL33 tumors
  tumor growth: Tumor growth arrest
OVCAR-4
  GI50: 61.7 nM
SF-539
  GI50: 10 nM
DMS114
  GI50: 10 nM
PC-3
  GI50: 15.8 nM
HCT-15
  GI50: 17.8 nM
MKN-A
  GI50: 145 nM
HBC-5
  GI50: 14.5 nM
DMS273
  GI50: 11 nM
St-4
  GI50: 105 nM
PI3Kα (PIK3CA/PIK3R1)
  IC50: 3.72 nM
PI3Kδ (PIK3CD/PIK3R1)
  IC50: 1.22 nM
PI3Kγ (PIK3CG)
  IC50: 17.1 nM
